These results are taken from PubChem BioAssay AID463206 (Broad Institute, 2010).

“And” between values parts separate entries of the source, which are not always exact repeats. Equal entries are not always repeated. The source made the active and inactive calls.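 The calls were made as follows: active = caspase luminescence falls with dose and the half-maximal concentration AC50 from the fitted curve is at or below a set limit; inconclusive = flat fit at 30 to 70% signal loss, or invalid fit; inactive = AC50 above the limit, or signal rises instead.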

This test concerns INS-1E cytokine-induced caspase-3/7, Caspase-Glo luminescence, 48 h. Briefly: suppression of cytokine-driven beta-cell apoptosis – INS-1E rat cells, luminescence, orthogonal assay for beta-cell apoptosis protection project, dose response (AID 463206).
As for `O=C(O)c1ccc(/C=C2\SC(=S)N(Nc3ccccc3)C2=O)cc1`, the AC50 is > 26 µM (inactive).
The result for `O=C(Nc1nc2ccccc2[nH]1)c1ccccc1F` reads > 26 µM (inactive); that for `Cc1ccc(N=Nc2ccc(O)c3ncccc23)cc1`, > 26 µM (inactive).
Consider `CCN1CCN(Cc2ccc(NC(=O)c3ccc(C)c(NC(=O)C(=O)c4c[nH]c5ccccc45)c3)cc2C(F)(F)F)CC1`, for which the AC50 is > 12 µM (inactive) and > 26 µM (inactive).
For the compound `C=CCNC1=C(Cl)C(=O)c2ccccc2C1=O`, the AC50 was > 26 µM (inactive).
Regarding `CC1(C)N=C(N)N=C(N)N1c1ccc(OCCCOc2ccccc2)c(Cl)c1`, the AC50 is > 26 µM (inactive).
In the case of `O=C(Nc1cccc(Cl)c1)Nc1nnc(-c2ccncc2)s1` it was > 26 µM (inactive); in that of `COc1cc(NC(=O)c2[nH]cnc2C(N)=O)cc(C(=O)Nc2cccc(C(F)(F)F)c2)c1`, > 26 µM (inactive).
Consider `N#CC(C#N)=C(Nc1ccc(F)cc1)SCc1cccc(Br)c1`, for which the AC50 was > 26 µM (inactive).
With `CCn1nc(C)c(CNC(=O)c2ccc(OC3CCN(Cc4ccccn4)CC3)cc2)c1C`, the AC50 is > 26 µM (inactive).
For `Nc1ccc(N2CCCCC2)cc1N1CCCCC1`, the AC50 is > 26 µM (inactive).
As to `Cc1cc(C(=O)NC2CCCc3c2cnn3-c2cccc(C)c2C)n(C)n1` (stereo not drawn), the AC50 is > 26 µM (inactive).
The result for `O=[N+]([O-])/C=C/c1cn(Cc2ccc(F)cc2)c2ccccc12` reads > 26 µM (inactive); that for `c1ccc(CNc2nc(NCc3ccccc3)c3ccccc3n2)cc1`, > 26 µM (inactive); that for `N/C(=N\NC(=O)c1sccc1OCc1ccc(Cl)cc1Cl)c1ccccn1`, > 26 µM (inactive).
In the case of `CCCCCCSc1cccc(-c2nc3ccccn3c2NCc2ccccc2)c1`, the AC50 was > 26 µM (inactive).
Turning to `Cc1ccc(O)c(N=Nc2nccs2)c1`, the AC50 was > 26 µM (inactive).
In the case of `C#CC[N+](C)(C)CCCCCCCCCCCC` it was > 26 µM (inactive); in that of `O=C(N/N=C/c1ccc([N+](=O)[O-])o1)c1ccc(O)cc1`, > 26 µM (inactive).
`Nc1ccc2c(c1)C(=O)C(=O)c1ccccc1-2`: the AC50 is > 26 µM (inactive).
For `Cc1ccc(-c2cc(-c3ccc(C)cc3)[n+](-c3ccccc3)c(-c3ccc(C)cc3)c2)cc1`, the AC50 was > 26 µM (inactive).
The result for `O=C(N/N=C/c1cc(Br)cc(Br)c1O)c1ccncc1` reads > 26 µM (inactive); that for `Cc1ccc(C2=CC(c3ccc(N(C)C)cc3)n3nnnc3N2)cc1` (stereo not drawn), > 26 µM (inactive); that for `CCCCCCCCCCn1ccc(=N)cc1`, > 26 µM (inactive).
Turning to `O=C(N/N=C/c1cccnc1)c1ccc(NC(=O)C(c2ccccc2)c2ccccc2)cc1`, the AC50 was > 26 µM (inactive).
For the compound `CC(C)C(=O)NC(=S)/C=C1/N(C)c2ccccc2C1(C)C`, the AC50 was > 26 µM (inactive).
`COc1cccc(/C=N/NC(=O)c2[nH]nc3c2CCc2ccccc2-3)c1O`: the AC50 is > 26 µM (inactive).
The result for `COc1ccc(C(=O)N/N=C/c2cc(Br)ccc2O)cc1OC` reads > 26 µM (inactive); that for `CCn1c(SCC(=O)Nc2cc(C)on2)nc2sc3c(c2c1=O)CCCC3`, > 12 µM (inactive); that for `CCN1C/C(=C/c2cccc([N+](=O)[O-])c2)C(=O)/C(=C/c2cccc([N+](=O)[O-])c2)C1`, > 26 µM (inactive).
In the case of `COc1ccccc1NC(=O)Cn1cc(C(=O)c2ccco2)c2ccccc21` it was > 26 µM (inactive); in that of `C#CCOCCOCCOCCNc1nc(N2CCN(C(=O)CCCCCCCCCCNC(=O)[C@H]([C@@H](C)CC)n3cc(CCCCCN)nn3)CC2)nc(N2CCN(C(=O)CCCCCCCCCCNC(=O)[C@H]([C@@H](C)CC)n3cc(CCCCN=C(N)N)nn3)CC2)n1`, > 26 µM (inactive); in that of `CCCCCCCCCCOC(=O)Cn1c(COc2ccccc2OC)[n+](C)c2ccccc21`, > 26 µM (inactive).
On to `CCCC(=O)NC(c1ccc(Cl)cc1Cl)c1ccc2cccnc2c1O` (stereo not drawn), for which the AC50 is > 12 µM (inactive).
Regarding `Cc1cccc(OCc2n(CC(=O)OC3CC(C)CCC3C(C)C)c3ccccc3[n+]2C)c1` (stereo not drawn), the AC50 is > 26 µM (inactive).
`Cc1cc(O)c2c(c1)C(=O)C13C(=C2O)C(=O)[C@H]2[C@@H](O)[C@@H]1[C@H]1[C@H](O)[C@@H]3C(=O)C3=C(O)c4c(O)cc(C)cc4C(=O)C312` (stereo partly drawn): the AC50 was 21.6 µM.
Consider `O=C(Nc1cccc(C(F)(F)F)c1)Oc1ccc(Cl)c2cccnc12`, for which the AC50 is > 26 µM (inactive).
In the case of `COc1ccc2c(c1)[nH]c1c(N3CCN(Cc4ccc5c(c4)OCO5)CC3)ncnc12`, the AC50 is > 26 µM (inactive).
With `COC(=O)C1CCN(C(=O)c2cc(-c3ccc(Cl)s3)nc3ccccc23)CC1`, the AC50 is > 26 µM (inactive).
As to `COc1ccc(OC)c2c1C(=O)C(Cl)=C(Cl)C2=O`, the AC50 is > 26 µM (inactive).
`COc1ccc(-c2sc3ccccc3c2-c2ccc(OCCN3CCCCC3)cc2)cc1`: the AC50 is > 26 µM (inactive).
In the case of `Cc1sc2ncnc(N/N=C/c3ccccc3O)c2c1C` it was > 26 µM (inactive).
As to `CCCCCc1cc(=O)oc2c(C(CCN3CCCC(C)C3)c3ccc(OC)cc3)c(OC)cc(OC)c12` (stereo not drawn), the AC50 is > 26 µM (inactive).
Turning to `O=C(NC1CCCC1)c1cc(COc2ccc3ncccc3c2)on1`, the AC50 is > 26 µM (inactive).
In the case of `Cc1cc(-c2n[nH]c(=S)n2/N=C/C(Br)=C/c2ccccc2)n[nH]1` it was 12.4 µM; in that of `CCN(CC)c1ccc2nc3ccccc3[n+](CC)c2c1`, > 26 µM (inactive); in that of `Cc1cc(C)n(CCC(=O)N/N=C/c2c(O)ccc3ccccc23)n1`, > 26 µM (inactive).
The result for `Cc1ccc(S(=O)(=O)/N=C2\C=C(Nc3ccc(O)cc3)C(=O)c3ccccc32)cc1` reads > 26 µM (inactive).
In the case of `Fc1ccccc1/C=N/Nc1nc(-c2ccccn2)nc2ccccc12`, the AC50 is > 26 µM (inactive).
For the compound `CN(C)c1ccc(/C=C/c2ccc3ccccc3n2)cc1`, the AC50 was > 26 µM (inactive).
The result for `C/C(=N\NC(=O)c1nnn(-c2nonc2N)c1CN(C)c1ccccc1)c1ccccc1O` reads > 26 µM (inactive); that for `CC(=O)NC(c1ccccc1)c1cc(Cl)c2cccnc2c1O` (stereo not drawn), > 26 µM (inactive); that for `C/C(=N\Nc1nc(C)cc(-c2ccccc2)n1)c1cccc(N)c1`, > 26 µM (inactive).
In the case of `COc1cccc(/C=N/NC(=O)CN2CC(c3ccccc3)CC2=O)c1O` (stereo not drawn) it was > 26 µM (inactive); in that of `CCCCc1ccc(N/C(N)=N/c2nc(C)cc(C)n2)cc1`, > 26 µM (inactive); in that of `O=c1c(Cl)c(Cl)cnn1Cc1ccc(F)cc1`, > 26 µM (inactive).
The result for `Cc1cc(N2CCCC2=O)cc(C)c1S(=O)(=O)NCCOc1ccc(C(C)(C)C)cc1` reads > 26 µM (inactive); that for `COc1ccc(NS(=O)(=O)c2cccc(NC(=O)c3ccc(S(=O)(=O)N4CCCCCC4)cc3)c2)cc1`, > 26 µM (inactive); that for `Cc1ccc(-c2c[n+](Cc3ccc(Cl)c(Cl)c3)c3n2CCC3)cc1`, > 26 µM (inactive).
Take `CCCCCCc1cc2cc(-c3nnc(-c4ccccc4O)o3)c(=O)oc2cc1O`: the AC50 was > 26 µM (inactive).
As for `CCOc1ccc(OCc2ccc(C(=O)NN=Cc3ccc[nH]3)cc2)cc1`, the AC50 is > 26 µM (inactive).
The result for `OC(c1cc(-c2ccc(C(F)(F)F)cc2)nc(C(F)(F)F)c1)C1CCCCN1` (stereo not drawn) reads > 26 µM (inactive); that for `CCOc1ccc(Nc2cc(C)nc(-n3nc(C)cc3C)n2)cc1`, > 26 µM (inactive); that for `Cc1cccc2nc(CSc3nc4[nH]ncc4c(=O)n3-c3cccc(Cl)c3)cc(=O)n12`, > 26 µM (inactive).
For the compound `N#CC(C#N)=C1C=CC=CN1/C(=C\c1ccco1)C(=O)c1ccc(Br)cc1`, the AC50 was > 26 µM (inactive).
The result for `CC[C@]1(c2ccccc2OC)ON(c2ccccc2C(F)(F)F)C1=O` reads > 26 µM (inactive); that for `NNc1ncnc2scc(-c3ccc(Cl)cc3)c12`, > 26 µM (inactive).
The result for `CC(=O)C1=NN(c2ccccc2)C(c2cccs2)N1c1ccc(N(C)C)cc1` (stereo not drawn) reads > 26 µM (inactive); that for `CCCCCCCCCCCCn1ccc(=N)cc1`, > 26 µM (inactive).
In the case of `N#C/C(N=Nc1ccccc1O)=N\Nc1ccccc1O` it was > 26 µM (inactive).
Turning to `C=C(C)C(=O)O[C@H]1C/C(C)=C\C(=O)/C=C(\C)[C@H](O)[C@@H]2OC(=O)C(=C)[C@@H]21`, the AC50 was 3 µM.
Take `COc1cccc(/C=N/Nc2ncnc3scc(-c4ccccc4)c23)c1O`: the AC50 was > 26 µM (inactive).
In the case of `CN1/C(=C\P(=O)(N(C)C)N(C)C)C(C)(C)c2ccccc21`, the AC50 is > 26 µM (inactive).
Consider `CN1/C(=C\C(=O)CN2C(=O)NC3(CCCCCC3)C2=O)C(C)(C)c2ccccc21`, for which the AC50 is > 12 µM (inactive).
In the case of `Cc1ccc(/C=N/NC(=O)c2c(-c3ccccc3)noc2C)c(O)c1` it was > 26 µM (inactive).
In the case of `CCN(CC)c1ccc(/C=N/NC(=O)c2ccc3nc[nH]c3c2)c(O)c1`, the AC50 is > 26 µM (inactive).
The result for `CCS(=O)(=O)c1ccc(OC)c(N=Nc2ccc(O)c3ncccc23)c1` reads > 26 µM (inactive); that for `COC(=O)c1c(C)oc2ccc(N(C(=O)c3ccncc3)S(=O)(=O)c3ccc4ccccc4c3)cc12`, > 26 µM (inactive); that for `Cc1ccc(NS(=O)(=O)c2ccc(NC(=O)CN(c3cc([N+](=O)[O-])ccc3C)S(C)(=O)=O)cc2)c(C)c1`, > 26 µM (inactive).
The result for `Cc1ccc2[nH]cc(/C=C/c3cc[n+](C)cc3)c2c1` reads > 26 µM (inactive); that for `O=C(c1ccc(-c2ccc(Cl)cc2)o1)N1CCN(c2ccc([N+](=O)[O-])cc2Cl)CC1`, > 26 µM (inactive); that for `CCOC(=O)c1ccc(NC(=O)c2nc(S(=O)(=O)Cc3ccccc3)ncc2Cl)cc1`, > 26 µM (inactive).
In the case of `CCn1c(NN=O)nc2ccccc21` it was > 26 µM (inactive).
